Measurements taken from ChEMBL document CHEMBL1135023, “A lipophilic thioflavin-T derivative for positron emission tomography (PET) imaging of amyloid in brain” (Bioorg Med Chem Lett, 2002).

Experiments:
[1] = test system: Mus musculus; assay: Compound was tested in vivo for mouse brain uptake after 30 min; Mouse brain uptake per g; type: functional, organism-based
[2] = test system: Mus musculus; assay: Compound was tested in vivo for mouse brain uptake after 2 min; Mouse brain uptake per g; type: functional, organism-based
[3] = Octanol-water partition at pH 7.4; type: physicochemical
[4] = In vitro binding using synthetic aggregated Abeta(1-40) fibrils
[5] = Ratio of 2-30 min mouse brain uptakes per g was determined; type: functional

CNc1ccc(-c2nc3ccccc3s2)cc1
ID/g [1]: 1.7%
ID/g [2]: 12.9%
logD [3]: 2.7

CNc1ccc(-c2nc3ccc(C)cc3s2)cc1
Ki [4]: 10 nM
ID/g [1]: 2.8%
ID/g [2]: 7.6%
Ratio [5]: 2.7
logD [3]: 3.4

Cc1ccc2c(c1)sc(-c1ccc(N(C)C)cc1)[n+]2C
logD [3]: 0.57
